The values below come from PubChem BioAssay AID180 (DTP/NCI, 2004).

Values joined by “and” are separate entries in the source; they are usually repeats but may differ in a detail not shown here. Equal entries are not always repeated.

The test system of this assay is BDF1 mice, Adenocarcinoma 755 s.c., tumor weight T/C. Kind of assay: NCI In Vivo Anticancer Drug Screen. Data for tumor model Adenocarcinoma 755 (subcutaneous) in B6D2F1 (BDF1) mice. Conditions: endpoint: mean tumor weight, higher = larger tumour. The essentials: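 Values express treated (T) relative to vehicle-dosed control (C) animals, based on survival or tumour size measured after compound treatment of mice bearing a transplanted tumour.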

The mark [1] stands for this setting: dose: 25.0 mg/kg/injection, schedule: Q01DX011 (ip), vehicle: methylcellulose (MC).
Where [2] appears, read: dose: 50.0 mg/kg/injection, schedule: Q01DX011 (ip), vehicle: methylcellulose (MC).
Setting [3] is: dose: 12.5 mg/kg/injection, schedule: Q01DX011 (ip), vehicle: methylcellulose (MC).
[4] abbreviates: dose: 25.0 mg/kg/injection, schedule: Q01DX011 (ip), vehicle: other.

Take `Cc1ccc(CNc2ncnc3[nH]ncc23)cc1C`: the T/C is 95 % of control under setting [1]; 72 % of control under setting [2]; 64 % of control (dose: 100.0 mg/kg/injection, schedule: Q01DX011 (ip), vehicle: methylcellulose (MC)); 68 % of control (dose: 300.0 mg/kg/injection, schedule: Q01DX011 (ip), vehicle: methylcellulose (MC)).
Turning to `CC(COS(C)(=O)=O)C(=O)N1CCN(C(=O)C(C)COS(C)(=O)=O)CC1` (stereo not drawn), the T/C is, setting by setting: (dose: 28.0 mg/kg/injection, schedule: Q01DX011 (ip), vehicle: methylcellulose (MC)) 69 % of control; (dose: 57.0 mg/kg/injection, schedule: Q01DX011 (ip), vehicle: methylcellulose (MC)) 74 % of control; (dose: 113.0 mg/kg/injection, schedule: Q01DX011 (ip), vehicle: methylcellulose (MC)) 73 % of control; (dose: 225.0 mg/kg/injection, schedule: Q01DX011 (ip), vehicle: methylcellulose (MC)) 69 % of control.
Consider `CC(=O)OCC(=O)[C@@]1(O)CC[C@H]2[C@@H]3CCC4=CC(=O)[C@H](C)C[C@]4(C)[C@@]3(F)[C@@H](O)C[C@@]21C`, for which the T/C (dose: 3.75 mg/kg/injection, schedule: Q01DX011 (sc), vehicle: steriod suspending solution) was 65 % of control; the T/C (dose: 7.5 mg/kg/injection, schedule: Q01DX011 (sc), vehicle: steriod suspending solution) is 29 % of control; the T/C (dose: 15.0 mg/kg/injection, schedule: Q01DX011 (sc), vehicle: steriod suspending solution) was 20 % of control; the T/C (dose: 30.0 mg/kg/injection, schedule: Q01DX011 (sc), vehicle: steriod suspending solution) was 9 % of control.
As for `Cc1ccc(C(=O)Nc2ccc(S(=O)(=O)O)c3cc(S(=O)(=O)O)cc(S(=O)(=O)O)c23)cc1NC(=O)c1cccc(NC(=O)Nc2cccc(C(=O)Nc3cc(C(=O)Nc4ccc(S(=O)(=O)O)c5cc(S(=O)(=O)O)cc(S(=O)(=O)O)c45)ccc3C)c2)c1` (tested in a mixture with another compound), the T/C is 88 % of control and 82 % of control (dose: 170.0 mg/kg/injection, schedule: Q01DX011 (ip), vehicle: methylcellulose (MC)); 98 % of control (dose: 680.0 mg/kg/injection, schedule: Q01DX011 (ip), vehicle: methylcellulose (MC)).
On to `Nc1ccc(C(=O)O)c(O)c1`, for which the T/C (dose: 37.88 mg/kg/injection, schedule: Q01DX011 (ip), vehicle: carboxymethylcellulose (CMC)) was 56 % of control; the T/C (dose: 43.25 mg/kg/injection, schedule: Q01DX011 (ip), vehicle: carboxymethylcellulose (CMC)) is 55 % of control; the T/C (dose: 75.75 mg/kg/injection, schedule: Q01DX011 (ip), vehicle: carboxymethylcellulose (CMC)) is 101 % of control; the T/C (dose: 86.5 mg/kg/injection, schedule: Q01DX011 (ip), vehicle: carboxymethylcellulose (CMC)) was 75 % of control; the T/C (dose: 141.17 mg/kg/injection, schedule: Q01DX011 (ip), vehicle: carboxymethylcellulose (CMC)) was 157 % of control; the T/C (dose: 151.5 mg/kg/injection, schedule: Q01DX011 (ip), vehicle: carboxymethylcellulose (CMC)) is 104 % of control. In addition, the T/C runs as follows: (dose: 173.0 mg/kg/injection, schedule: Q01DX011 (ip), vehicle: carboxymethylcellulose (CMC)) 75 % of control; (dose: 303.0 mg/kg/injection, schedule: Q01DX011 (ip), vehicle: carboxymethylcellulose (CMC)) 71 % of control; (dose: 346.0 mg/kg/injection, schedule: Q01DX011 (ip), vehicle: carboxymethylcellulose (CMC)) 82 % of control.
`CCCSc1nc(N)nc2c1ncn2CC(C)C`: the T/C (dose: 6.25 mg/kg/injection, schedule: Q01DX011 (ip), vehicle: methylcellulose (MC)) is 31 % of control; the T/C under setting [3] is 25 % of control; the T/C under setting [1] was 4 % of control; the T/C under setting [2] was 1 % of control.
Take `COC(=O)[C@@H]1c2cc3c(c(O)c2[C@@H](OC2OC(C)C(OC)C(C)(OC)C2OC)C[C@]1(C)O)C(=O)c1c(O)cc2c(c1C3=O)O[C@H]1O[C@]2(C)[C@H](O)[C@@H](N(C)C)[C@@H]1O` (stereo partly drawn): the T/C by setting is: (dose: 0.2 mg/kg/injection, schedule: Q01DX011 (ip), vehicle: carboxymethylcellulose (CMC)) 83 % of control; (dose: 0.3 mg/kg/injection, schedule: Q01DX011 (ip), vehicle: carboxymethylcellulose (CMC)) 89 % of control; (dose: 0.3 mg/kg/injection, schedule: Q01DX011 (ip), vehicle: saline) 179 % of control; (dose: 0.44 mg/kg/injection, schedule: Q01DX011 (ip), vehicle: carboxymethylcellulose (CMC)) 57 % of control; (dose: 0.44 mg/kg/injection, schedule: Q01DX011 (ip), vehicle: saline) 113 % of control; (dose: 0.67 mg/kg/injection, schedule: Q01DX011 (ip), vehicle: carboxymethylcellulose (CMC)) 99 % of control. The T/C (dose: 1.0 mg/kg/injection, schedule: Q01DX011 (ip), vehicle: carboxymethylcellulose (CMC)) is 103 % of control.
In the case of `Nc1nc(SCc2ccccc2[N+](=O)[O-])c2[nH]cnc2n1`, the T/C was 95 % of control (dose: 3.7 mg/kg/injection, schedule: Q01DX011 (ip), vehicle: carboxymethylcellulose (CMC)); 90 % of control (dose: 7.5 mg/kg/injection, schedule: Q01DX011 (ip), vehicle: carboxymethylcellulose (CMC)); 68 % of control (dose: 15.0 mg/kg/injection, schedule: Q01DX011 (ip), vehicle: carboxymethylcellulose (CMC)); 67 % of control (dose: 30.0 mg/kg/injection, schedule: Q01DX011 (ip), vehicle: carboxymethylcellulose (CMC)); 2 % of control (dose: 37.5 mg/kg/injection, schedule: Q01DX011 (ip), vehicle: carboxymethylcellulose (CMC)); 1 % of control (dose: 75.0 mg/kg/injection, schedule: Q01DX011 (ip), vehicle: carboxymethylcellulose (CMC)). In addition, the T/C (dose: 300.0 mg/kg/injection, schedule: Q01DX011 (ip), vehicle: carboxymethylcellulose (CMC)) is 4 % of control.
For `CC1=C(O)c2ccccc2C(=O)C1=O`, the T/C runs as follows: under setting [4], 106 % of control; (dose: 50.0 mg/kg/injection, schedule: Q01DX011 (ip), vehicle: other) 84 % of control; (dose: 100.0 mg/kg/injection, schedule: Q01DX011 (ip), vehicle: other) 96 % of control.
Consider `COC(=O)C1=CO[C@H](C)[C@@H]2CN3CCc4c([nH]c5ccccc45)[C@@H]3C[C@H]12`, for which the T/C reads like this: (dose: 9.0 mg/kg/injection, schedule: Q01DX011 (ip), vehicle: carboxymethylcellulose (CMC)) 95 % of control; (dose: 17.5 mg/kg/injection, schedule: Q01DX011 (ip), vehicle: carboxymethylcellulose (CMC)) 92 % of control; (dose: 35.0 mg/kg/injection, schedule: Q01DX011 (ip), vehicle: carboxymethylcellulose (CMC)) 116 % of control; (dose: 70.0 mg/kg/injection, schedule: Q01DX011 (ip), vehicle: carboxymethylcellulose (CMC)) 93 % of control.
With `CSc1ncc(C)c(Nc2ccc(Cl)cc2)n1`, the T/C (dose: 15.0 mg/kg/injection, schedule: Q01DX011 (ip), vehicle: methylcellulose (MC)) was 102 % of control.
In the case of `Cc1ccc(CSc2nc(N)nc3c2ncn3C2OC(CO)C(O)C2O)cc1` (stereo not drawn), the T/C was 57 % of control under setting [3]; 60 % of control under setting [1]; 25 % of control and 41 % of control under setting [2].
In the case of `NC(N)=Nc1nc2ccccc2s1`, the T/C reads like this: (dose: 6.25 mg/kg/injection, schedule: Q01DX011 (ip), vehicle: carboxymethylcellulose (CMC)) 108 % of control; (dose: 6.25 mg/kg/injection, schedule: Q01DX011 (ip), vehicle: other) 84 % of control; (dose: 6.25 mg/kg/injection, schedule: Q01DX011 (ip), vehicle: water) 105 % of control; (dose: 12.5 mg/kg/injection, schedule: Q01DX011 (ip), vehicle: carboxymethylcellulose (CMC)) 53 % of control; under setting [4], 90 % of control; (dose: 25.0 mg/kg/injection, schedule: Q01DX011 (ip), vehicle: water) 84 % of control. Further, the T/C (dose: 50.0 mg/kg/injection, schedule: Q01DX011 (ip), vehicle: water) was 48 % of control.
Take `Cn1cnc2c(F)ncnc21`: the T/C (dose: 8.5 mg/kg/injection, schedule: Q01DX011 (ip), vehicle: carboxymethylcellulose (CMC)) was 106 % of control; the T/C (dose: 17.0 mg/kg/injection, schedule: Q01DX011 (ip), vehicle: carboxymethylcellulose (CMC)) is 96 % of control; the T/C (dose: 34.0 mg/kg/injection, schedule: Q01DX011 (ip), vehicle: carboxymethylcellulose (CMC)) is 85 % of control; the T/C (dose: 68.0 mg/kg/injection, schedule: Q01DX011 (ip), vehicle: carboxymethylcellulose (CMC)) was 84 % of control.

The term T/C denotes the ratio of treated to control.
